Reference: US20230014352A1, “INHALED STATINS AS BRONCHODILATORS TO IMPROVE LUNG FUNCTION IN RESPIRATORY DISEASES” (priority 2019, published 2023)
Entries after “also recorded” stand apart in the source; their conditions may differ.

Tests used:
[1] = test system: primary human airway smooth muscle (ASM) cells; test: Contractile force screening (CFS), basal ASM cell contraction (strain energy); format: cell-based; details: for strain energy (ASM contraction): compared to pravastatin; for basal ASM cell contraction: FIG. 1A/1D; for reversibility of force inhibitory effect: media without Pit after treatment, FIG. 10D
Experimental: Primary human airway smooth muscle (ASM) cells derived from both non-asthmatic and asthmatic donors were obtained from the Gift of Hope Organ and Tissue Donor Network. These cells have been well-characterized previously (see for example H. Yoshie et al., Biophys J (2018) 114(9):2194-99). All measurements were performed using cells at passage 5-8 from three non-asthmatic donors. Cells were grown on either 10% serum-containing F12 complete media, or serum-deprived media supplemented with insulin, transferrin, and selenium (Corning, Tewksbury, Mass.). Contractile Force Screening: Human ASM cells were grown to confluence in 96-well plates on custom NuSilTM 8100 elastic substrates (Avantor, Inc., Radnor, Pa.) (R. […] Fluorescent beads (diameter 400 nm) were embedded in the substrate surface to enable traction force calculations based on their displacements. To measure fractions, an inverted epi-fluorescence microscope (DMI 6000B, Leica Inc., Germany) equipped with a heated chamber (37° C.), a monochrome camera ([…]), and a motorized stage was used. Spatial images were recorded of substrate-embedded fluorescent beads at 10× magnification. Based on the bead displacements (resolution 15 μm) relative to a cell-free model, together with knowledge of substrate stiffness and thickness, fractions were computed using the approach of Fourier Transform Traction Cytometry ([…] et al., Pharmacol Ther (2014) 143(1):87-110), modified to the case of cell monolayers ([…] et al., Cell (2007) 129(3):511-22). From each fraction map, the root-mean-squared traction (RMST) value and strain energy were calculated and reported as a measure of normal contraction in the monolayer. On a well-by-well basis, the ratio of the strain energy after vs. before treatment was computed, and all values of a given treatment group were normalized to the mean of each treatment group. Comparison of Statins: […] MA is the immediate product of HMGCR action on HMB-CoA, so addition of MA would reverse the effect of statin inhibition of HMGCR. […] Simvastatin-acid (SA), atorvastatin, pravastatin, and pitavastatin were examined with CFS to determine the dose response of the ASM relaxation effect. […] From each ASM force map, the strain energy (i.e., the energy that is imparted to the substrate by the contractile cells, in pJ) was computed, to represent the average cellular contraction.

[2] = test system: human ASM cells, histamine-induced contraction; test: Contractile force screening, histamine-induced ASM contraction; format: cell-based
Experimental: Contractile Force Screening: Human ASM cells were grown to confluence in 96-well plates on custom NuSil™ 8100 elastic substrates (Avantor, Inc., Radnor, Pa.) (R. Rokhzan et al., Lab Invest (2019) 99(1):138-45). Fluorescent beads (diameter ˜400 nm) were embedded in the substrate surface to enable traction force calculations based on their displacements. To measure fractions, an inverted epi-fluorescence microscope (DMI 6000B, Leica Inc., Germany) equipped with a heated chamber (37° C.), a monochrome camera (Leica DFC365 FX), and a motorized stage was used. Spatial images were recorded of substrate-embedded fluorescent beads at 10× magnification. Based on the bead displacements (resolution ˜15 μm) relative to a cell-free model, together with knowledge of substrate stiffness and thickness, fractions were computed using the approach of Fourier Transform Traction Cytometry (B. Yeganeh et al., Pharmacol Ther (2014) 143(1):87-110), modified to the case of cell monolayers (E. J. Whalen et al., Cell (2007) 129(3):511-22). From each fraction map, the root-mean-squared traction (RMST) value and strain energy were calculated and reported as a measure of normal contraction in the monolayer. On a well-by-well basis, the ratio of the strain energy after vs. before treatment was computed, and all values of a given treatment group were normalized to the mean of each treatment group.
In complete media, 0.08 μM pitavastatin is sufficient to inhibit histamine-mediated ASM contraction (FIG. 4A).

MLC-2 = MLC-2 (total and phosphorylated) expression, western blot; format: cell-based, human; details: 1 μM, 24 hours
Experimental: Antibodies for western blot analysis against total and phospho-MLC2 were obtained from Santa Cruz Biotechnology and Cell Signaling Technology, respectively. Antibodies for pROCK1, total ROCK1, and GAPDH were obtained from Abcam. Pitavastatin was obtained from Santa Cruz Biotechnology.
Non-asthmatic primary human ASM cells were treated with either vehicle or pitavastatin (1 μM) for 24 hours. Cells were then immuno-stained for F-actin expression. […] Cell lysates were analyzed by western blot for total ROCK-1, total ROCK-2, total MLC-2, and phosphorylated MLC-2. As shown in FIGS. 15C and 15D, pitavastatin reduced the total expression of ROCK-1, ROCK-2, and MLC-2 (total and phosphorylated).

IL6 = test: IL17/TNFα-induced IL6 peptide secretion by ASM cells; format: cell-based, human; details: 2 mM pitavastatin, 72 hrs; cytokines 18 hrs at 10 ng/mL; 10% FBS; FIG. 14B
Experimental: Non-asthmatic primary human ASM cells were grown to confluence and were either untreated or pre-treated with 2 mM pitavastatin and GGPP (10 mM) for a total of 72 hours. Total cytokine stimulation was for 18 hours at 10 ng/mL. […] All experiments were conducted under serum-containing media conditions (10% FBS).

primary ASM cells = test: Potentiation of isoproterenol relaxation of histamine-induced ASM contraction; format: cell-based, human; details: FIG. 17A
Experimental: Primary ASM cells from a non-asthmatic donor were serum-deprived for 2 days in a tissue culture flask, and then cultured to confluence for an additional 24 hrs in serum-free medium in 96-well traction force measurement plates (3 kPa stiffness). The pre-treatment contractile force was measured as described above. Cells were then treated with either vehicle (PEG400), control (serum-free medium) or Pitavastatin at concentrations of 10^−5 M, 10^−6 M, 10^−7 M, and 10^−8 M, for 24 hrs, and the baseline contractile force measured. ASM cells were then acutely treated with histamine (10 μM) for 30 minutes, and the histamine-induced contractile force was measured. The cells were then treated with isoproterenol (10^−6, 10^−7, 10^−8, 10^−9, and 10^−11 M) for 30 minutes, and the isoproterenol-relaxed ASM contractile force was measured. The percent “histamine contraction” was calculated as the ratio of isoproterenol-relaxed ASM contractile force to histamine-induced contractile force. […] FIG. 17B details the data boxed in FIG. 17A.

[3] = 1 μM, serum-deprived media, FIG. 10B

`O=C(O)C[C@H](O)C[C@H](O)/C=C/c1c(C2CC2)nc2ccccc2c1-c1ccc(F)cc1` [pitavastatin] was tested, and the “inhibitory potency on ASM contraction, dose-response ranking” value ([1]; 0-10 μM, FIG. 1C, 1D) was “most significant effect”, the “strain energy (ASM contraction)” value ([1]; 0.4 μM, 24 hours, FIG. 1C) was “significant reduction in strain energy” and the “basal ASM cell contraction” value ([1]; 1 μM, 24 hours) was “potently and significantly inhibits basal ASM contraction”. For the same compound, the “basal ASM cell contraction” value ([1]; 1 μM, 24 hours, listed as Pitavastatin) was “more potent”, the “relaxation effect at 24 hrs compared to simvastatin” value [1, 3] was “more significant at 24 hrs” and the “relaxation effect at 24 hrs compared to simvastatin” value ([1]; 1 μM, serum-deprived media, FIG. 10B, listed as Pit) was “significantly more efficacious than Sim”. For the same compound, the “ASM relaxation over time compared to simvastatin” value ([1]; 1 μM, all time points including 24 hours, with or without media starvation, FIG. 4C) was “greater ASM relaxation than simvastatin”, the “reversibility of force inhibitory effect” value ([1]; 1 μM) was “reversible” and the “reversibility of force inhibitory effect” value ([1]; 1 μM, listed as Pit) was “reversed”. For the same compound, the “ASM contraction over time compared to control” value [1, 3] was “reduced ASM contraction time-dependently”, the “strain energy (ASM contraction)” value ([1]; 2 and 10 μM, 24 hours, FIG. 1C) was “significantly (and further) reduce strain energy” and the “ASM contraction / ASM cell relaxation” value ([1]; FIG. 10A) was “inhibited ASM contraction”. For the same compound, the “dose-dependent effect on ASM” value ([1]; primary ASM cells from three different human donors, FIG. 3) was “dose-dependently relax ASM”, the “potency on basal ASM contraction relative to simvastatin” value ([1]; same dose, 1 μM, 24 hours, FIG. 1D) was “more potent than simvastatin” and the “start of ASM relaxing effects” value ([1]; time-dependent effects, FIG. 4C) was 4 h. For the same compound, the “potency relative to SA in prevention of histamine-induced ASM contraction” value [2] was “at least 5 times”, the “histamine-induced ASM contraction” value ([2]; 0.4 μM statin, 24 hrs) was “renders histamine ineffective at inducing ASM contraction” and the “histamine-induced ASM contraction” value ([2]; 0.4 μM statin, 24 hrs, listed as Pit) was “inhibits histamine-induced ASM contraction”. The “concentration sufficient to inhibit histamine-mediated ASM contraction” value ([2]; complete media, FIG. 4A) was 0.08 µM, the “potency ranking on histamine-induced ASM contraction” value ([2]; pitavastatin, simvastatin, atorvastatin) was “most potent of the three drugs” and the “histamine-induced ASM contraction” value ([2]; pre-treatment 24 hrs, histamine 10 μM, FIG. 4A/4B) was “significantly reduced histamine-induced ASM contraction; also recorded: potently and significantly inhibited”. For the same compound, the “concentration providing a similar extent of protection from histamine-induced contraction” value ([2]; serum starved media) was 0.4 µM, the “expression of MLC-2 (total and phosphorylated)” value (MLC-2) was “reduced” and the “IL17/TNFα-induced IL6 peptide secretion” value (IL6) was “inhibited”. For the same compound, the “effect of isoproterenol on histamine contraction compared to vehicle” value (primary ASM cells; 10^−7 M, 10^−6 M and 10^−5 M pitavastatin 24 hrs, 10^−9 M and 10^−8 M isoproterenol) was “potentiated” and the “degree of relaxation compared to vehicle” value (primary ASM cells; all concentrations of statin, 10^−11 M isoproterenol) was “not substantially different from vehicle”.
